The compounds below were run against human σ1 receptor and human μ-opioid receptor (assay: Human σ1 receptor and human μ-opioid receptor radioligand assays (dual binding)). Conditions: combined class for Ki-μ ([3H]-DAMGO, transfected CHO-K1 membranes) and Ki-σ1 ([3H](+)-pentazocine, transfected HEK-293 membranes).
`Nc1cccc(CCN2CCC3(CC2)COCCN3c2ccccc2)c1` [Example 50, 3-(2-(1-phenyl-4-oxa-1,9-diazaspiro[5.5]undecan-9-yl)ethyl)aniline] was tested, and the Ki was ≥ 0.5 µM. With `O=C(Cc1ccccn1)N1CCOCC12CCN(CCc1ccccc1)CC2` [Example 17, 1-(9-phenethyl-4-oxa-1,9-diazaspiro[5.5]undecan-1-yl)-2-(pyridin-2-yl)ethanone] the Ki was ≥ 0.5 µM. With `O=C(Cc1cccnc1)N1CCOCC12CCN(CCc1ccccc1)CC2` [Example 22, 1-(9-phenethyl-4-oxa-1,9-diazaspiro[5.5]undecan-1-yl)-2-(pyridin-3-yl)ethanone] the Ki was ≥ 0.5 µM. `O=C(c1ccccn1)N1CCOCC12CCN(CCc1ccccc1)CC2` [Example 11, (9-phenethyl-4-oxa-1,9-diazaspiro[5.5]undecan-1-yl)(pyridin-2-yl)methanone] was tested, and the Ki was ≥ 0.5 µM. In the case of `O=C(c1cccnc1)N1CCOCC12CCN(CCc1ccccc1)CC2` [Example 14, (9-phenethyl-4-oxa-1,9-diazaspiro[5.5]undecan-1-yl)(pyridin-3-yl)methanone], the Ki is reported as ≥ 0.5 µM. In the case of `O=C(c1cscn1)N1CCOCC12CCN(CCc1ccccc1)CC2` [Example 16, (9-phenethyl-4-oxa-1,9-diazaspiro[5.5]undecan-1-yl)(thiazol-4-yl)methanone], the Ki is reported as ≥ 0.5 µM. With `Fc1cnccc1CN1CCOCC12CCN(CCc1ccccc1)CC2` [Example 31, 1-((3-fluoropyridin-4-yl)methyl)-9-phenethyl-4-oxa-1,9-diazaspiro[5.5]undecane] the Ki was ≥ 0.5 µM. `O=C(c1ccccc1)N1CCOCC12CCN(CC(O)c1ccccc1)CC2` (stereo not shown) [Example 51, (9-(2-hydroxy-2-phenylethyl)-4-oxa-1,9-diazaspiro[5.5]undecan-1-yl)(phenyl)methanone] was tested, and the Ki was ≥ 0.5 µM. For `O=C(Cc1ccncc1)N1CCOCC12CCN(CCc1ccccc1)CC2` [Example 19, 1-(9-phenethyl-4-oxa-1,9-diazaspiro[5.5]undecan-1-yl)-2-(pyridin-4-yl)ethanone], the Ki was ≥ 0.5 µM. `O=[N+]([O-])c1cccc(CCN2CCC3(CC2)COCCN3c2ccccc2)c1` [Example 41, 9-(3-nitrophenethyl)-1-phenyl-4-oxa-1,9-diazaspiro[5.5]undecane] was tested, and the Ki was ≥ 0.5 µM. `O=C(c1cncs1)N1CCOCC12CCN(CCc1ccccc1)CC2` [Example 20, (9-phenethyl-4-oxa-1,9-diazaspiro[5.5]undecan-1-yl)(thiazol-5-yl)methanone] was tested, and the Ki was ≥ 0.5 µM. `O=C(c1ccncc1)N1CCOCC12CCN(CCc1ccccc1)CC2` [Example 13, (9-phenethyl-4-oxa-1,9-diazaspiro[5.5]undecan-1-yl)(pyridin-4-yl)methanone] was tested, and the Ki was ≥ 0.5 µM. With `O=C(CN1CCC2(CC1)COCCN2C(=O)c1ccccc1)c1ccccc1` [Example 45, 2-(1-benzoyl-4-oxa-1,9-diazaspiro[5.5]undecan-9-yl)-1-phenylethanone] the Ki was ≥ 0.5 µM.
